Assay results taken from patent US6787651B2, “Substituted indoles, pharmaceutical compounds containing such indoles and their use as PPAR-γ binding agents” (SmithKline Beecham Corporation, priority 2000, dated 2004).

The compounds below were run against T1, PPARγ ligand binding domain (LBD) (amino acids 195-475) (Homo sapiens, UniProt P37231) (assay: PPAR-γ binding assay (spin plate / gel filtration binding assay, displacement of [3H]BRL 49653)). Conditions: read-out: IC50 range in the PPAR-γ Binding Assay.
T1 construct: polyHis; made in house; host or cells: Escherichia coli
T1 sequence (P37231 195-475 isoform P37231-2): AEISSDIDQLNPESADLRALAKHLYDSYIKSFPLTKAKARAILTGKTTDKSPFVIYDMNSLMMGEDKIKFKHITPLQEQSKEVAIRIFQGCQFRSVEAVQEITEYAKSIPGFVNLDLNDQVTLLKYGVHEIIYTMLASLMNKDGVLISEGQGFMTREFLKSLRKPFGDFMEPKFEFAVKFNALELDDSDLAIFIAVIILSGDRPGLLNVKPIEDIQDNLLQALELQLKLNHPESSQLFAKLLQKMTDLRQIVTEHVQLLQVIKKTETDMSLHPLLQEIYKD
Description: The activity of a given compound in binding to PPAR-γ can be assayed routinely according to procedures known in the art. […] The PPAR-γ binding assay described below was used to determine the PPAR-γ binding activities of the compounds of the invention.
Compounds were tested for their ability to bind to PPARγ using a spin plate assay (gel filtration binding assay). […] Each compound was tested in triplicate. […] The plates were centrifuged (Beckman GS-6R) at 2500 rpm for 5 minutes, 170 μl Scitisafe® scintillation fluid (Fisher) was added to each well, the plates were sealed, and after 1 hour, were counted in a Wallac MicroBeta counter. The amount of nonspecific binding, as assessed by control wells containing 10 μM of the corresponding unlabeled ligand, was subtracted from each data point. For each compound tested, the data was averaged and plots of ligand concentration versus CPM of radioligand bound were constructed. Apparent IC50 values were estimated from nonlinear least-squares fit of the data assuming simple competitive binding.

SMILES	IC50
O=C(O)c1c(-c2cc3ccccc3s2)c2ccccc2n1Cc1cccc(C(F)(F)F)c1 [Example 232, 3-(Benzothien-2-yl)-1-[3-(trifluoromethyl)benzyl)-indole-2-carboxylic acid]	0.1 to 9.99 nM
COc1ccc(-c2c(C(=O)O)n(Cc3cccc(OC)c3)c3ccc(OCCN(C)c4nc5ccccc5o4)cc23)cc1 [Example 233]	10 to 10000 nM
COc1ccc(-c2c(C(=O)O)n(Cc3cccc(C(F)(F)F)c3)c3ccc(OCCCN(C)c4nc5ccccc5o4)cc23)cc1 [Example 234]	0.1 to 9.99 nM
CC1(C)COC(c2c(C(=O)O)n(Cc3cccc(C(F)(F)F)c3)c3ccccc23)=N1 [Example 238]	10 to 10000 nM
O=C(O)c1c(C2=NC3(CCCC3)CO2)c2ccccc2n1Cc1cccc(C(F)(F)F)c1 [Example 239]	10 to 10000 nM
O=C(O)c1c(C(=O)N2CCOCC2)c2ccccc2n1Cc1cccc(C(F)(F)F)c1 [Example 245]	10 to 10000 nM
CN1CCN(C(=O)c2c(C(=O)O)n(Cc3cccc(C(F)(F)F)c3)c3ccccc23)CC1 [Example 246]	10 to 10000 nM
O=C(O)c1c(-c2nc3ccccc3o2)c2ccccc2n1Cc1cccc(C(F)(F)F)c1 [Example 247]	10 to 10000 nM
O=C(O)c1c(-c2nc3cc(Cl)ccc3o2)c2ccccc2n1Cc1cccc(C(F)(F)F)c1 [Example 248]	10 to 10000 nM
CC(C)(C)c1ccc2oc(-c3c(C(=O)O)n(Cc4cccc(C(F)(F)F)c4)c4ccccc34)nc2c1 [Example 249]	0.1 to 9.99 nM
O=C(O)c1c(-c2nc3ccccc3s2)c2ccccc2n1Cc1cccc(OCC2CC2)c1 [Example 250]	0.1 to 9.99 nM
O=C(O)c1[nH]c2c(C(=O)c3ccccc3)cccc2c1-c1ccccc1 [Example 251]	10 to 10000 nM
COc1cccc(Cn2c(C(=O)O)c(-c3ccc(C(C)(C)C)cc3)c3cccc(C(=O)C4CC4)c32)c1 [Example 252]	10 to 10000 nM
COc1cccc(Cn2c(C(=O)O)c(-c3ccc(C(C)(C)C)cc3)c3cc(CC4CC4)ccc32)c1 [Example 253]	0.1 to 9.99 nM
COc1cccc(Cn2c(C(=O)O)c(-c3ccc(C(C)(C)C)cc3)c3cc(C(=O)C4CC4)ccc32)c1 [Example 254]	10 to 10000 nM
COc1cccc(Cn2c(C(=O)O)c(-c3ccc(C(C)(C)C)cc3)c3cc(C(O)C4CC4)ccc32)c1 (centres unmarked) [Example 255]	10 to 10000 nM
COc1cccc(Cn2c(C(=O)O)c(-c3ccc(C(C)(C)C)cc3)c3cccc(CC4CC4)c32)c1 [Example 256]	10 to 10000 nM
O=C(O)c1c(-c2nc3cc(C(F)(F)F)ccc3s2)c2ccccc2n1Cc1cccc(C(F)(F)F)c1 [Example 257]	0.1 to 9.99 nM
COc1cccc(Cn2c(C(=O)O)c(-c3ccc(C4(C)CC4)cc3)c3ccccc32)c1 [Example 258]	0.1 to 9.99 nM
O=C(O)c1c(-c2ccc(C3CC3)cc2)c2ccccc2n1Cc1cccc(C(F)(F)F)c1 [Example 260]	0.1 to 9.99 nM
COc1cccc(Cn2c(C(=O)O)c(-c3ccc(C4CC4)cc3)c3ccccc32)c1 [Example 261]	0.1 to 9.99 nM
O=C(O)c1c(-c2ccc(SC3CC3)cc2)c2ccccc2n1Cc1cccc(C(F)(F)F)c1 [Example 262]	0.1 to 9.99 nM
COc1cccc(Cn2c(C(=O)O)c(-c3ccc(SC4CC4)cc3)c3ccccc32)c1 [Example 263]	0.1 to 9.99 nM
COc1cccc(Cn2c(C(=O)O)c(-c3ccc(OCC4CC4)cc3)c3cc(OCC(=O)O)ccc32)c1 [Example 267]	10 to 10000 nM
CCOCCOc1ccc2c(c1)c(-c1cccc(OCC3CC3)c1)c(C(=O)O)n2Cc1cccc(OC)c1 [Example 271]	0.1 to 9.99 nM
COc1cccc(Cn2c(C(=O)O)c(-c3cccc(OCC4CC4)c3)c3cc(OCCOCc4ccccc4)ccc32)c1 [Example 272]	0.1 to 9.99 nM
COc1cccc(Cn2c(C(=O)O)c(-c3ccc(C(C)(C)C)cc3)c3cc(CCOCC4CC4)ccc32)c1 [Example 275]	0.1 to 9.99 nM
Cc1sc(-c2ccccc2)nc1CCOc1ccc2c(c1)cc(C(=O)O)n2CC1CCCO1 (centres unmarked) [Example 276]	10 to 10000 nM
CN1CCCC1CCOc1ccc2cc(C(=O)O)n(Cc3cccc(C(F)(F)F)c3)c2c1 (centres unmarked) [Example 280]	10 to 10000 nM
